# Where two headings read alike, the source gives them in different places.
# Key:
# [1] = tested on: K562 cells expressing kinase Bcr-AbI; settings: known activity; BCR-Abl+ cells, patient with CML; cited from earlier work
# Abl kinase (h) = Abl kinase (h) (Homo sapiens (Human), UniProt P00519); assay: Cerep kinase profiling, HTRF assay, Abl kinase; type: biochemical
# Method: (§1) The inhibitory activity of the compounds of the chemical series on different protein kinases was evaluated by Cerep (Cerep Kinase Profiling Service; www.cerep.com). The kinases used in the tests in vitro are human recombinant proteins expressed in human cells, insect cells or in bacteria. […] The activity of the kinase was then detected by an HTRF assay. The HTRF assay (CisBio International) is based on fluorescence transfer, using Europium (Eu3+) cryptate and XL665 respectively as donor and acceptor. When the biotinylated or tagged substrate is phosphorylated by the kinase, it reacts with a cryptate-labelled phosphospecific antibody. Addition of Streptavidin-XL665, SA-XL665, (or anti-tag antibody XL665) leads to juxtaposition of the cryptate and of the fluorophore XL665, which is reflected in fluorescence resonance energy transfer (FRET). The intensity of FRET depends on the quantity of cryptate-labelled antibody bound to the substrate, which is proportional to the quantity of phosphorylated substrate (Mathis, G. Probing molecular interactions with homogeneous techniques based on rare earth cryptates and fluorescence energy transfer.
# c-kit kinase (h) = c-kit kinase (h) (Homo sapiens (Human), UniProt P10721); assay: Cerep kinase profiling, HTRF assay, c-kit kinase; type: biochemical; settings: compound incubated at 10 μM; read-out: Percentage inhibition of kinase c-kit
# Method: as §1, with “bacteria. [table]” for “bacteria.”, “transfer. Clin Chem 41, 1391-7 (1995)).” for “transfer.”
# Src kinase (h) = Src kinase (h) (Homo sapiens (Human), UniProt P12931); assay: Cerep kinase profiling, HTRF assay, Src kinase; type: biochemical
# Method: as §1
# AurA/Aur2 kinase (h) = AurA/Aur2 kinase (h) (Homo sapiens (Human), UniProt O14965); assay: Cerep kinase profiling, HTRF assay, Aurora-A kinase; type: biochemical; settings: compound incubated at 10 μM; read-out: Percentage inhibition of kinase Aurora-A
# Method: as §1, with “bacteria. [table]” for “bacteria.”, “transfer. Clin Chem 41, 1391-7 (1995)).” for “transfer.”
# PDGFRα kinase (h) = PDGFRα kinase (h) (Homo sapiens (Human), UniProt P16234); assay: Cerep kinase profiling, HTRF assay, PDGFRα kinase; type: biochemical; settings: compound incubated at 10 μM; read-out: Percentage inhibition of kinase PDGFR-α
# Method: as §1, with “bacteria. [table]” for “bacteria.”, “transfer. Clin Chem 41, 1391-7 (1995)).” for “transfer.”
# [2] = tested on: K562 cells expressing kinase Bcr-AbI; assay: Inhibition of cellular proliferation (MTT), K562 cells; type: cell-based, human; settings: for IC50: Homo sapiens
# Method: Cellular tests were carried out at the Montpellier Cancer Research Centre. The inhibition of proliferation by our compounds was analysed on 2 cell lines (U937 and K562) by calculating the IC50, testing 6 concentrations in triplicate for each of the compounds and for each line.
# Cells in exponential phase were seeded in 96-well plates at a concentration of 10^4 cells/100 μL/well. The final concentrations of compound in the well in contact with the cells were 0.1; 0.3; 0.9; 3.3; 10; 30; 90 μM. […]
# U937 cells (BCR-Abl−) [3] = tested on: U937 cells (BCR-Abl−)
# U937 cells (BCR-Abl−) [4] = assay: cells; settings: Homo sapiens, U-937, 72 h
# Abl WT = Abl WT (Homo sapiens (Human), UniProt P00519); assay: Reaction Biology Corp. kinase assay, Abl WT; type: biochemical; settings: Table 11; ATP at 10 μM; read-out: IC50 in nM Abl WT
# Method: (§2) 4 compounds were tested for their capacity to inhibit various mutated kinases AbI (American company, Reaction Biology Corp.).
# Abl Y253F = Abl Y253F (Homo sapiens (Human), UniProt P00519, Y253F); assay: Reaction Biology Corp. kinase assay, mutated Abl Y253F; type: biochemical; settings: Table 11; ATP at 10 μM
# Method: as §2
# Abl T315I = Abl T315I (Homo sapiens (Human), UniProt P00519, T315I); assay: Reaction Biology Corp. kinase assay, mutated Abl T315I; type: biochemical; settings: Table 11; ATP at 10 μM; read-out: IC50 in nM Abl T315I
# Method: as §2
# [5] = 10 μM, compounds tested by Cerep, read-out: % inhibition of kinase activity, Abl WT (category)
# [6] = Table 6, compound incubated at 10 μM, read-out: Percentage inhibition of kinase Abl
# [7] = Table 8, compound incubated at 10 μM, read-out: Percentage inhibition of kinase Abl
# [8] = 10 μM, compounds tested by Cerep, read-out: % inhibition of kinase activity, Src (category)
# [9] = compound incubated at 10 μM, read-out: Percentage inhibition of kinase c-Src
# [10] = K562, 72 h, read-out: IC50 at 72 h on K562 (category), 72 h incubation
# [11] = Table 9, Cerep, 5 concentrations 10^−10 M to 10^−4 M, read-out: IC50 in M Abl
# [12] = compounds tested by Cerep, read-out: IC50 on kinase Abl WT (category)
# Src kinase (h), sequence (P12931 whole entry, looked up): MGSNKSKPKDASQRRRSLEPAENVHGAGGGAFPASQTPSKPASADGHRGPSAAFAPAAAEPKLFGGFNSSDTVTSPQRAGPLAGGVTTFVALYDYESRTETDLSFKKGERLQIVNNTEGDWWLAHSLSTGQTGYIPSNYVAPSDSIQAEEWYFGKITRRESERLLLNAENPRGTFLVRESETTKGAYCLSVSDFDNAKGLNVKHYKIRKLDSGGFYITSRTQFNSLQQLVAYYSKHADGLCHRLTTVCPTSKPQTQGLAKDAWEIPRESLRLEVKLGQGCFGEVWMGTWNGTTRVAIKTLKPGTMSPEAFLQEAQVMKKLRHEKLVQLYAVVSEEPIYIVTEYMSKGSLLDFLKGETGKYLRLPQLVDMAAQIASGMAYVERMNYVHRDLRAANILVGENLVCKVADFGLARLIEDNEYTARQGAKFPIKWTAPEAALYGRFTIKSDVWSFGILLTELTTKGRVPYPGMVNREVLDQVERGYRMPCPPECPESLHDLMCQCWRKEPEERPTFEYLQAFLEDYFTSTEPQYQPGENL
# AurA/Aur2 kinase (h), sequence (O14965 whole entry): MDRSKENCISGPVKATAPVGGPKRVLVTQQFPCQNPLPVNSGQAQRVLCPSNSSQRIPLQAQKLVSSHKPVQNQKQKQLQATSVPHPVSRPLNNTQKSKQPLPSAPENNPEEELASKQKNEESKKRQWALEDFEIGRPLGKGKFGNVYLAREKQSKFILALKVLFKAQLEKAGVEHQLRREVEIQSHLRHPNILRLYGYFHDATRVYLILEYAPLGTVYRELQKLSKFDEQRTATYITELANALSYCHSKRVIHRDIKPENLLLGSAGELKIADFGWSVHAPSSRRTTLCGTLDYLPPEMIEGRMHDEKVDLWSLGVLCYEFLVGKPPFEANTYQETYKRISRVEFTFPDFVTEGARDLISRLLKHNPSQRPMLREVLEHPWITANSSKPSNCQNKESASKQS
# PDGFRα kinase (h), sequence (P16234 24-1089): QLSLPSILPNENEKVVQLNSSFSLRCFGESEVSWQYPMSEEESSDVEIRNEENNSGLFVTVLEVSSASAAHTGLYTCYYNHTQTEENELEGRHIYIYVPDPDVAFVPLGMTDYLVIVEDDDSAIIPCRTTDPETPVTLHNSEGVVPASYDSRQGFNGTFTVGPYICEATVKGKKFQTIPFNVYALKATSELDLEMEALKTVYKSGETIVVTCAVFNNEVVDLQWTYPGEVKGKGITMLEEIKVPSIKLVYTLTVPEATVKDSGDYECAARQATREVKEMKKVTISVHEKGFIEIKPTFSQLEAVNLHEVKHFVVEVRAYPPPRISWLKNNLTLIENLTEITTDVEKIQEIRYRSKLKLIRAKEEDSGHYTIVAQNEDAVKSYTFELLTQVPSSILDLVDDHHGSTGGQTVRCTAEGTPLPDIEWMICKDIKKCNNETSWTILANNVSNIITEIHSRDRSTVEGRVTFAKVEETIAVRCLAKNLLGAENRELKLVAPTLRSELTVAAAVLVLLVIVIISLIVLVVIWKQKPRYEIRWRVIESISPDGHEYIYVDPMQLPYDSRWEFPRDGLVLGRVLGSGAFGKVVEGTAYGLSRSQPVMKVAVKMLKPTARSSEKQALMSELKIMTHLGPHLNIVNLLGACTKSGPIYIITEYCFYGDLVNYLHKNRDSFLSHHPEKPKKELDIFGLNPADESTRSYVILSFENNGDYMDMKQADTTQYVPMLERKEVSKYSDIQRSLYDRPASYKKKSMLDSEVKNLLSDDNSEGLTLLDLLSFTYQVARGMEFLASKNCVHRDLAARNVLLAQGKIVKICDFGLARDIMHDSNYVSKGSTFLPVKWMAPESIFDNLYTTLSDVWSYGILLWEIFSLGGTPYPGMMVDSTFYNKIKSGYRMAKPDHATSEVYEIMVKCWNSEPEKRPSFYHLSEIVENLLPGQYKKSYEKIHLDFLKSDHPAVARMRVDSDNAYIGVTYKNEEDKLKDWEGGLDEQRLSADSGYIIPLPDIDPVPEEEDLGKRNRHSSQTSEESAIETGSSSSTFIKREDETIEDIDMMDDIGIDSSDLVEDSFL
# c-kit kinase (h), sequence (P10721 26-976): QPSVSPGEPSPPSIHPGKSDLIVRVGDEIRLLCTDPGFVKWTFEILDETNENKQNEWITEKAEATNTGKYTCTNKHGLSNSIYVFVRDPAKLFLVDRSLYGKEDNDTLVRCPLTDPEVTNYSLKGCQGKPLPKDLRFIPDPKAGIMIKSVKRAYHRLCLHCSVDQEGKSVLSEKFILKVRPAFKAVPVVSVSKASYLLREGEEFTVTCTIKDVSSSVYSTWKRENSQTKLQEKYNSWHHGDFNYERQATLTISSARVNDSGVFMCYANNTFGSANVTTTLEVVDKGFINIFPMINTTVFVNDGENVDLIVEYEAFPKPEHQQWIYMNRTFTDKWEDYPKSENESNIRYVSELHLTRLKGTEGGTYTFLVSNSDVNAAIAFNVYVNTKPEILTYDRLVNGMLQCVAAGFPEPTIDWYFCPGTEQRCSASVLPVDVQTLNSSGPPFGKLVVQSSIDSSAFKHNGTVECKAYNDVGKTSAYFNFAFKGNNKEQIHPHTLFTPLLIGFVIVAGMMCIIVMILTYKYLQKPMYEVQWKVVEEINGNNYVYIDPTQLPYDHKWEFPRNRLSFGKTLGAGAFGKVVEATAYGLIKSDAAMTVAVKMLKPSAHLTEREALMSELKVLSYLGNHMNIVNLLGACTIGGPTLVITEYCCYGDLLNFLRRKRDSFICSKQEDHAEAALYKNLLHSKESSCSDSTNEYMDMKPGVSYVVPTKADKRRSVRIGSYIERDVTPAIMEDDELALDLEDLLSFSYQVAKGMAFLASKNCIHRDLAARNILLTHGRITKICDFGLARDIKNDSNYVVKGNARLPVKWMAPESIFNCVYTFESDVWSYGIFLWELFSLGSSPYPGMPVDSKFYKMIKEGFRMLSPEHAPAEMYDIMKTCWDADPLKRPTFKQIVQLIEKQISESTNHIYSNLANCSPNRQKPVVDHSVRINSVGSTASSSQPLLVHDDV
inhibition at 10 µM (Abl kinase (h); [5]) [%],inhibition at 10 µM (Abl kinase (h); [6]) [%],inhibition at 10 µM (Abl kinase (h); [7]) [%],inhibition at 10 µM (Src kinase (h); [8]) [%],inhibition at 10 µM (Src kinase (h); [9]) [%],Compound,also measured
,,,,,Cc1ccc(NC(=O)c2ccc(CN3CCN(C)CC3)cc2)cc1Nc1nccc(-c2cccnc2)n1 [Imatinib],Action of Imatinib on K562 [1]: Sensitive
> 50,100,100,> 50,90,"CN(C)CCCNC(=O)c1cc2cc(NC(=O)c3ccccc3Br)cnc2[nH]1 [ND0009, 5-(2-bromobenzamido)-N-(3-(dimethylamino)propyl)-1H-pyrrolo[2,3-b]pyridine-2-carboxamide]","inhibition at 10 µM (c-kit kinase (h)): 44%; IC50 (Src kinase (h); Table 9, Cerep, read-out: IC50 in M c-Src): 2200 nM; IC50 (Src kinase (h); compound tested by Cerep, read-out: IC50 on kinase Src (category)): 100 to 10000 nM; inhibition at 10 µM (AurA/Aur2 kinase (h)): 5%; inhibition at 10 µM (PDGFRα kinase (h)): 11%; activity on the Bcr-AbI+ cells (K562), in words [2]: active; IC50 ([2]; K562, 72 h, Table 12, 72 h of treatment, MTT, read-out: IC50 (μM) K562): 6 µM; IC50 [2, 10]: > 10 µM; IC50 ([2]; K562, incubation time not stated (24 h and/or 72 h), read-out: IC50 for the K562 Bcr-AbI kinase (category)): > 10 µM; activity on the Bcr-AbI− cells (U937), in words (U937 cells (BCR-Abl−) [3]): not on the Bcr-AbI− cells; IC50 (U937 cells (BCR-Abl−) [4]; read-out: IC50 (μM) U937, Table 12, 72 h of treatment, MTT): > 100 µM; IC50 (U937 cells (BCR-Abl−) [4]; read-out: IC50 at 72 h on U937 (category), 72 h incubation): > 10 µM"
> 50,94,94,> 50,59,"COCc1cc2cc(NC(=O)c3ccccc3Br)cnc2[nH]1 [ND0021, 2-bromo-N-(2-(methoxymethyl)-1H-pyrrolo[2,3-b]pyridin-5-yl)benzamide]",
> 50,97,97,> 50,72,O=C(Nc1cnc2[nH]c(Cc3ccc[nH]3)cc2c1)c1ccccc1Br [ND0037],
> 50,94,94,> 50,71,O=C(Nc1cnc2[nH]c(CNc3ccc(O)cc3)cc2c1)c1ccccc1Br [ND0038],IC50 (Abl kinase (h); [11]): 2600 nM; IC50 (Abl kinase (h); [12]): 100 to 10000 nM
> 50,94,94,> 50,74,"COC(=O)c1cc2cc(NC(=O)c3c(F)cccc3OC)cnc2[nH]1 [ND0047, Methyl 5-(2-fluoro-6-methoxybenzamido)-1H-pyrrolo[2,3-b]pyridine-2-carboxylate]",

Compound,inhibition at 10 µM (Abl kinase (h); [5]) [%],inhibition at 10 µM (Abl kinase (h); [6]) [%],inhibition at 10 µM (Abl kinase (h); [7]) [%],inhibition at 10 µM (Src kinase (h); [8]) [%],inhibition at 10 µM (Src kinase (h); [9]) [%],also measured
"COC(=O)c1cc2cc(NC(=O)c3ccccc3Br)cnc2[nH]1 [ND0020, Methyl 5-(2-bromobenzamido)-1H-pyrrolo[2,3-b]pyridine-2-carboxylate]",> 50,85,85,> 50,50,"IC50 (Abl kinase (h); [11]): 460 nM; IC50 (Abl kinase (h); [12]): 100 to 10000 nM; inhibition at 10 µM (c-kit kinase (h)): 10%; inhibition at 10 µM (AurA/Aur2 kinase (h)): 5%; inhibition at 10 µM (PDGFRα kinase (h)): 0%; IC50 (Abl WT): 44.6 nM; IC50 (Abl Y253F): < 10 nM; IC50 (Abl T315I): > 100000 nM; IC50 ([2]; K562, 24 h, 24 h incubation, read-out: IC50 at 24 h on K562 (category)): 1 to 10 µM; IC50 [2, 10]: 1 to 10 µM"

# Reference: patent US8580815B2, “Derivatives of azaindoles as inhibitors of protein kinases ABL and SRC” (Oribase Pharma, priority 2009, dated 2013)
